In patent US20160130554A1, “Reprogramming Mesenchymal Stromal Cells Into Hematopoietic Cells” (Wake Forest University Health Sciences, priority 2014, published 2016):

Columns and labels:
SIPs [1] = assay: In vitro reprogramming of SIPs, flow cytometry for hematopoietic surface markers; assay type: cell-based, human; details: the two small molecules alone, without RUNX1C
Source text: Heparinized human BM was obtained from healthy donors after informed consent, according to guidelines from the Office of Human Research Protection at the University of Nevada at Reno, Wake Forest Health Sciences, or from commercially available sources (AllCells, LLC, Alameda Calif.). Low density BM mononuclear cells (BMNC) were separated by Ficoll density gradient (1.077 g/ml Sigma, St. Louis, Mo.) and washed twice in Iscove's modified Dulbecco's medium (Invitrogen, Carlsbad, Calif.). Stro-1+ MSC were then isolated using anti-Stro-1 antibody (R&D Systems, Minneapolis, Minn.) and magnetic bead cell sorting (Miltenyi Biotec, Inc., Auburn, Calif.) according to manufacturer's guidelines. Stro-1+ cells were then cultured at low density in 0.02% gelatin (Sigma, St Louis, Mo.) coated flasks using Mesenchymal Stem Cell Growth Medium (MSCGM™, Lonza, Walkersville, Md.) in a humidified 37° C. incubator at 5% CO2.
BM-MSC were transduced on 6-well plates with Oct4- or RUNX1C-encoding lentiviral vector, alone or in combination (or an eGFP-encoding lentiviral vector as a control), at a multiplicity of infection (MOI) of 50 for each vector. Twenty four hours after transduction, the vector-containing media was removed and replaced with fresh MSCGM™ (Lonza). […]

SIPs [2] = assay: Culture conditions for reprogramming of SIPs (data not shown); assay type: cell-based, human; details: the two factors alone, preliminary studies
Source text: Cultures may be performed in defined serum-free media. This will to facilitate clinical grade production of hematopoietic cells. SIPS ([…]) may be plated in 100 mm gelatin-coated culture plates using serum-free TheraPEAK® MSCGM-CD Mesenchymal Stem Cell Medium (Lonza). Sixteen hours later they may be transduced overnight with the lentivector encoding RUNX1c at an MOI of ˜10. A control group may be transduced with an identical lentivector expressing EGFP to judge transduction efficiency (usually ˜80-90%) and to assess the precision of the cumate “switch”. The following day, the medium may be changed to DMEM/F12/+20% KOSR/1×NEAA/0.1 mM 2-ME/containing rhFGF2 (20 ng/ml) and rhIGFII (30 ng/ml). […] At the same time, media may be supplemented with cumate to turn on expression of RUNX1c (or EGFP) and with VPA (1 mM final concentration) and Bix-01294 (2 μM final concentration).
In order to facilitate differentiation of the HSC into all lineages or into hematopoietic cells having good engraftment potential, additional growth factors, such as TPO and BMP4, may be incorporated into the culture medium. […]

Row | Molecule | expression of CD41 or CD34 (SIPs [1]) | reprogramming of SIPs to the hematopoietic lineage (SIPs [2])
1 | COc1cc2nc(N3CCCN(C)CC3)nc(NC3CCN(Cc4ccccc4)CC3)c2cc1OC [Bix-01294] | did not induce significant expression | 
2 | CCCC(CCC)C(=O)O [VPA, valproic acid] | did not induce significant expression | 
3 | rhFGF2: recombinant human FGF2 medium supplement |  | some ability to support some degree of reprogramming
4 | rhIGFII: recombinant human IGF-II medium supplement |  | some ability to support some degree of reprogramming
